From article PMC8359942, “Native Mass Spectrometry for the Study of PROTAC GNE‐987‐Containing Ternary Complexes” (Chemmedchem, 2021) come the findings set out here.

Test [1] has as its target T1, Brd4 bromodomain 1 (Brd4^B1) (Homo sapiens, UniProt O60885).
T1 construct: bromodomain 1 (avi-tagged, partly biotinylated)
Put plainly: native nESI-FT-ICR mass spectrometry, binary binding; also […] ternary complex with VCB (maximum ratio […] at […]).

In test [2] the target is T2, Brd4 bromodomain 2 (Brd4^B2) (Homo sapiens, UniProt O60885).
T2 construct: bromodomain 2
The experiment in a line: native nESI-FT-ICR mass spectrometry, binary binding; also […] ternary complex with VCB (maximum ratio […]).

Test [3] concerns the target T3, Von Hippel‐Lindau (VHL) E3‐Ubiquitin Ligase, as VCB complex (Homo sapiens, UniProt P40337).
T3 construct: VHL complexed with Elongins B and C (VCB); with Elongin B and Elongin C
Put plainly: native nESI-FT-ICR mass spectrometry, binary binding; also ternary complex with Brd4 B1 or B2.

T3 sequence (P40337 whole entry): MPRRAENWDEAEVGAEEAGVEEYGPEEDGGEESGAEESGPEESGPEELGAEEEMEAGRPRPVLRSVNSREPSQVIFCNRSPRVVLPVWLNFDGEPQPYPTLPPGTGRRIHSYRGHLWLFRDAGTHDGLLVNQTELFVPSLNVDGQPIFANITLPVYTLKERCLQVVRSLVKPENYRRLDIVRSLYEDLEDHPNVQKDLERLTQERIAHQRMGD
T3 sequence (Q15370 whole entry partner): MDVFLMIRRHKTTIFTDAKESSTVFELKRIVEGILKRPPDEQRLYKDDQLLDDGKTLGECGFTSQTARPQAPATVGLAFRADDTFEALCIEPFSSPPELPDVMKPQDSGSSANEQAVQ
T3 sequence (Q15369 whole entry partner): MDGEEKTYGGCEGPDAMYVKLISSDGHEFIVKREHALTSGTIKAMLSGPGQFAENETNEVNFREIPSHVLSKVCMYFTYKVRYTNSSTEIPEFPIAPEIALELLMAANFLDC

In the case of GNE-987, the entries for the “% bound at 5 μM” value in test [1], in test [2] and in test [3] were 40 % bound at 5 μM, 45 % bound at 5 μM and 57 % bound at 5 μM, respectively.
